Data: paper PMC11513854, “De novo GTP synthesis is a metabolic vulnerability for the interception of brain metastases” (Cell Reports Medicine, 2024)

Legend:
[1] = Parallel artificial membrane permeability (PAMPA) assay; assay type: in vitro ADME; conditions: 50 μM, pH 7.4, 16 h; −LogPe < 6 indicate high CNS permeability
Protocol: The permeability of the compounds was evaluated using the parallel artificial membrane permeability (PAMPA) assay, as previously described.[35] The PAMPA assembly was consisted of the acceptor plate (MultiScreen IP Filter Plate, Millipore Sigma, Canada) and the donor plate (96 well Collection Plate, Millipore Sigma, Canada). The artificial membrane solution was prepared as 15 mg/mL of polar brain lipid from porcine (Sigma Aldrich, Oakville, Canada) in a solution of 60% chloroform/40% dodecane. Seven μL of the mixture was pipetted into each acceptor plate well (top compartment). Thereafter, 300 μL of PBS (1 × PBS, pH 7.4, 5% DMSO) solution was added to each well of the acceptor plate and 300 μL of drug-containing donor solutions (50 μM compounds in 1 × PBS, pH 7.4, 5% DMSO) to each well of the donor plate (bottom compartment) in triplicate. […] The concentration of the compounds was determined by LC/MS/MS. The effective permeability (Pe), in units of centimeter per second, was calculated using the following equation: LogPe=Log{C×[−Ln(1−[drug]acceptor/[drug]equilibrium)]} Where: C = VD × VA/[(VD + VA) × t × A]; VD = volume of donor compartment (0.30 mL); VA = volume of acceptor compartment (0.30 mL); A = filter area (0.24 cm^2 for Multi-Screen Permeability Filter plate); and t = incubation time (in seconds).

[2] = tested on: CRUK0748-BM; test: Dose-response assay on CRUK0748-BM line; assay type: cell-based, human
Text: To obtain a clinically relevant correlate to the data aforementioned, we acquired two patient-derived lung adenocarcinoma samples: one that was derived from a patient who developed BM following their primary lung tumor diagnosis (CRUK0748), and one that was derived from a patient who, to-date, has not developed BM (CRUK0733). BM-initiating capacity was confirmed in our PDX models (Figure S1C). We harvested the tagged CRUK0748 cells from the brains of mice and cultured them in stem cell-enrichment media conditions to derive a CRUK0748-BM line.
(§1) Dose-response assays were conducted using the same protocol apart from drugs being plated using 2-fold serial dilutions (20 μM - 39 nM) as previously described.[66] The half maximal inhibitory concentration (IC50) is determined by plotting percent cell viability by the logarithmic concentration of drug. IC80 concentrations will be used for subsequent functional assays (cell proliferation, sphere formation), as determined by the following formula: ICF=100−F/F^1/H×IC50 where F = fraction of maximal response and H = hill slope.

[3] = carboxylic acid functionality; no measurement described; cited from earlier work
[4] = tested on: patient-derived BMICs; test: Clonogenic sphere formation assay; assay type: cell-based, human; conditions: limiting dilution and clonogenic sphere formation assays, IC80
Protocol: To assess tumor sphere forming capacity under clonogenic conditions, neurospheres were dissociated into single cells and plated at a low density of 200 cells/well in low-binding tissue culture-treated 96-well plates in serum-free media as previously described.[14]^,[66]^,[67]^,[68]^,[69] Cells were incubated with drug (IC80) or DMSO control, in triplicate, and incubated at 37°C with a humidified atmosphere of 5% CO2. The number of spheres per well were manually counted seven days later. The results were illustrated and analyzed for significance using GraphPad Prism 8 software.

[5] = tested on: patient-derived BMICs; test: Cell proliferation assay over time, PrestoBlue; assay type: cell-based, human; conditions: IC80, PrestoBlue normalized to vehicle
Protocol: Cell proliferation assays were conducted using the same protocol, except for drugs being plated at their IC80 for a four-day incubation period. All results were illustrated and analyzed for significance using GraphPad Prism 8 software.

[6] = tested on: patient-derived BMIC lines from lung-, breast-, and melanoma-BM; test: Dose-response curves of multiple BM lines; assay type: cell-based, human; conditions: 72-h treatment; below plasma Cmax concentration of 10 μM
Text: PrestoBlue readout is normalized to vehicle-treated cells. Data are presented as mean ± SD from 4 technical replicates. (C) Assessment of cell viability of patient-derived BMICs treated with MPA or its vehicle. PrestoBlue readout is normalized to vehicle-treated cells, p < 0.0001. […] Sphere count normalized to vehicle-treated cells, p < 0.0001. (F and G) Percent wound closure of DMSO control vs. MPA-treated cells expressed as an average of replicates (n = 3) and images are taken at 10× magnification. Wound closure (represented by dotted white line) is measured using ImageJ on Incucyte-derived images, p values are indicated. Scale bars are 400 μm. See also Videos S1, S2, S3, and S4. Comparisons of cell viability, sphere formation, and wound closure were made via a two-tailed unpaired t test and data are presented as mean ± SD from 3 to 4 technical replicates. […]
as §1

Structure (SMILES)	BBB penetrance by PAMPA [1]	BMIC proliferation, dose-response [2]	pKa [3]	frequency of stemness in BMIC lines [4]	BMIC proliferation over time [5]	anti-BMIC activity against multiple BMIC lines [6]
COc1c(C)c2c(c(O)c1C/C=C(\C)CCC(=O)OCCN1CCCC1)C(=O)OC2 [Compound 3]	BBB penetrant	–	–	–	–	–
COc1c(C)c2c(c(O)c1C/C=C(\C)CCC(=O)O)C(=O)OC2 [MPA, Mycophenolic acid]	–	inhibits BMIC proliferation	~5	significantly reduces the frequency of stemness	inhibits BMIC proliferation over time	relatively high anti-BMIC activity
